Results from patent publication US5808087A, “Sulfonium salts of pyrrolylbenzimidazoles” (priority 1995, dated 1998).
Values after ≈ are worked out from the molar mass of the structure shown.

Experiments:
Mouse B16 melanoma cells = assay: In vitro tumor cell growth suppressing activity (Test Example 1); format: cell-based; conditions: 37° C., 3 days
Protocol: Antitumor activity of the above-mentioned compounds was tested as follows. Mouse B16 melanoma cells were plated on a 96-well culture plate, test compounds were added to the cells one day after, and then the plate was incubated at 37° C. for 3 days under a 5%-CO2 atmosphere. According to the method described in Cancer Res. 48, 589-601, 1988, the concentrations of compounds required to inhibit cell growth by 50% were obtained. The activity is expressed by the concentrations (micrograms/milliliter). The result with distamycin is also shown for comparison.

[1] = Stability of compounds (2), remaining rate by HPLC after one month at 60° C. (Test Example 4); format: physicochemical
Protocol: Stability of these compounds was investigated. As an index of stability, remaining rates of compounds were obtained by measuring remaining compounds after heating at 60° C. for one month. The remaining rates were measured by HPLC.

[2] = Stability of compounds (1), remaining rate by HPLC after 3 days (Test Example 3); format: physicochemical
Protocol: In order to compare stabilities of the compounds, remaining rates of compounds were obtained by incubating the compounds at about 4° C. and 50° C. for 3 days and measuring comparative peak areas on HPLC (Table 4).

[3] = test system: Colon 26 mouse colon cancer cells; assay: In vivo antitumor activity, subcutaneously implanted Colon 26 (Test Example 2); parameters: species or system mouse (female CDF1 mice); conditions: Colon 26 s.c. in CDF1 mice, i.v. on day 1, tumors weighed day 15; for 50% T/C: 21600 min
Protocol: A cell suspension of Colon 26 mouse colon cancer cells (1×10^7 cells/ml) in HBSS (Hanks' Balanced Salt Solution) was prepared. This cell suspension (0.1 ml each) was implanted subcutaneously into the lateral region of female CDF1 mice (day 0). One day after the tumor cell injection (day 1), the body weight of the mice was measured, and then solutions of test compounds (5% glucose solutions containing 5% Tween 80) were injected intravenously into the tails of the mice. On day 15, the resulting tumors were taken out and weighed.
Percent average weights of tumors of animals in the test groups, in which the compounds were injected, with respect to those in the control group, in which no compounds were injected, were calculated and given as T/C values.

With `Cn1cc(NC(=O)CC[S+](C)C)cc1-c1nc2cc(C(=O)Nc3ccc(N(CCCl)CCCl)cc3)ccc2[nH]1` [1*^1] the “50% Suppressing Concentration” value (Mouse B16 melanoma cells) was 0.71 µg/mL, the remaining at 730 h [1] was 96.7% and the remaining at 72 h ([2]; 50° C.) was 100%. The “50% T/C” value [3] was 7.19 mg/kg.

In the case of `Cn1cc(NC(=O)CC[S+](C)C)cc1-c1nc2cc(C(=O)Nc3ccc(N(CCCl)CCCl)cc3)ccc2[nH]1` [25*^2], the “50% Suppressing Concentration” value (Mouse B16 melanoma cells) is reported as 0.99 µg/mL, the Remaining rate ([1]; 43800 min) is reported as 99.4% and the “50% T/C” value [3] is reported as 9.35 mg/kg.

With `COc1cccc2c1C(=O)c1c(O)c3c(c(O)c1C2=O)C[C@@](O)(C(=O)CO)C[C@@H]3O[C@H]1C[C@H](N)[C@H](O)[C@H](C)O1` [Adriamycin, adriamycin, reference compound] the ED50 ([3]; Mus musculus, iv, 360 h, read-out: 50% T/C) was 12.4 mg/kg.

For `Cn1cc(NC(=O)c2cc(NC(=O)c3cc(NC=O)cn3C)cn2C)cc1C(=O)NCCC(=N)N` [Distamycin, distamycin, reference compound], the IC50 (Mouse B16 melanoma cells; Mus musculus, 72 h, read-out: 50% Suppressing Concentration) was 36 µg/mL (≈ 74.8 µM).

`Cn1cc(NC(=O)CC[S+](C)C)cc1-c1nc2cc(C(=O)Nc3ccc(N(CCCl)CCCl)cc3)ccc2[nH]1` [IODIDE] showed a remaining at 72 h ([2]; 4° C.) of 99% and a Remaining rate ([2]; 50° C., 4320 min) of 83%.
